Columns and labels:
[1] = test system: horses; test: Trial of methoxyflurane administered to horses at the end of anaesthesia to modify recovery; assay type: in vivo, horse; parameters: 1st Movt / Stern. / Stnd / Atax / Walk out: unit not given here
Description: Trial of methoxyflurane administered to horses at the end of anaesthesia, attempting to modify recovery:
[…] Horses recovering from isoflurane typically attempt to stand in 10 to 15 minutes, usually fall down and try to get back up 2 or 3 times (sometimes violent, resulting in injuries from skin abrasions to fractured limbs) and are then standing 15 to 20 minutes after anaesthetic administration ceased. […] Halothane recoveries are less violent and result in less likelihood of injury.
Initially trials were also performed in anattempt to determine the dose and duration of MOF administration that would result in improved quality of recovery.
The last 8 horses were administered with ever lower doses of MOF for less time with better results (see table below). […] The lowest dose produced a good result.

[2] = test system: horses; conditions: typical; cited from earlier work
[3] = horse 332 kgs, 135 Mins. ISO anaesthesia, Methoxy total 200 ml
[4] = horse 462 kgs, 135 Mins. ISO anaesthesia, Methoxy total 350 ml
[5] = horse 470 kgs, 85 Mins. ISO anaesthesia, Methoxy total 210 ml
[6] = horse 492 kgs, 75 Mins. ISO anaesthesia, Methoxy total 540 ml
[7] = horse 580 kgs, 16O Mins. ISO anaesthesia, Methoxy total 300 ml
[8] = horse 338 kgs, 30 Mins. HAL anaesthesia, Methoxy volume not given
[9] = horse 492 kgs, 90 Mins. HAL anaesthesia, Methoxy volume not given
[10] = horse 472 kgs, 130 Mins. ISO anaesthesia, Methoxy volume not given

## COC(F)(F)C(Cl)Cl [Methoxy, methoxyflurane]
[1]; [3]
  1st Movt: 17
  Atax: 30
  Comments: Good
  Stern.: 25
  Stnd: 26
  Walk out: 41
[1]; [4]
  1st Movt: 48
  Atax: 59
  Comments: Still 45 mm then
  Stnd: 49
  Walk out: 75
[1]; [5]
  1st Movt: 5
  Atax: 35
  Comments: 10x wobble then
  Stern.: 14
  Stnd: 29
  Walk out: 55
[1]; [6]
  1st Movt: 50
  Atax: 85
  Comments: Stood 69- fell
  Stern.: 60
  Stnd: 75
  Walk out: 100
[1]; [7]
  1st Movt: 37
  Atax: 85
  Stern.: 60
  Stnd: 61
  Walk out: 90
[1]; initial trials (higher dose, longer administration), horses after isoflurane anaesthesia
  quality of recovery: long recoveries with marked ataxia
[1]; last 8 horses, ever lower doses for less time
  quality of recovery: less ataxia and a better quality recovery
[1]; lowest dose, last horse
  quality of recovery: good result

## FC(F)(F)C(Cl)Br (centres unmarked) [HAL, halothane]
[2]
  recovery duration in comparison with isoflurane: twice as long as isoflurane
[1]; [8]
  1st Movt: 27
  Atax: Fell
  Comments: Stood/fell x 3
  Stern.: 30
  Stnd: 31
  Walk out: 55
[1]; [9]
  1st Movt: 30
  Atax: 75
  Comments: Poor - flip over
  Stern.: 50(2)
  Stnd: 65
  Walk out: 85

## FC(F)OC(Cl)C(F)(F)F (centres unmarked) [ISO, isoflurane]
[1]; [10]
  1st Movt: 23
  Atax: 78
  Comments: Try stand at 23
  Stern.: 32
  Stnd: 63
  Walk out: 100
